Assay results published in patent US20210355104A1, “ADENOSINE RECEPTOR BINDING COMPOUNDS” (Nikang Therapeuticsm Inc., priority 2018, published 2021).
Several values for one entry are separate records, joined by “and”; a condition that tells them apart may be missing. Equal values may be shown once.

Experiments:
Adenosine A2A receptor [1] = target: T1, Adenosine A2A receptor (Homo sapiens, UniProt P29274); assay: Adenosine A2A receptor competitive binding assay (Tag-lite HTRF); conditions: Tag-lite adenosine A2A receptor ligand binding
T1 sequence (P29274 whole entry): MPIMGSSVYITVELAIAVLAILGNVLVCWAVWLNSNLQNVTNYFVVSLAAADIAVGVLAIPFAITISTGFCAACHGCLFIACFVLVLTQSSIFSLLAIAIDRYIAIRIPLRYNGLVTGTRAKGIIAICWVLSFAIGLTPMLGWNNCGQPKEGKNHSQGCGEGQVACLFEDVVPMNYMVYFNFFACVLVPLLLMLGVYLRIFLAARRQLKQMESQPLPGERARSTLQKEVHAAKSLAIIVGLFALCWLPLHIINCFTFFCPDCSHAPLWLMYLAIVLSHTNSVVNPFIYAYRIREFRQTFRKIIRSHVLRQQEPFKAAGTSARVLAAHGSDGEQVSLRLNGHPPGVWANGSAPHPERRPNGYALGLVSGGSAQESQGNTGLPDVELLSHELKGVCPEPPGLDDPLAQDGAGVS
Method in brief: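 Compound displacement of a red fluorescent antagonist tracer (added at 60 nM stock) from donor-labelled, pre-transfected human A2A cells was read by HTRF after 2 h at room temperature; compound dilutions contained 0.6% DMSO.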

Adenosine A2A receptor [2] = target: T1, Adenosine A2A receptor; assay: cAMP assay in 293A cells stably expressing the adenosine A2A receptor (CGS21680 stimulation, HTRF); type: cell-based; parameters: expressed in transfected cells; host or cells: 293A cells (Invitrogen, Cat# R705-07) infected with A2A-expressing lentivirus (custom packaged by Biosettia), puromycin selected; conditions: 293A-A2AR cells, 0.1% BSA
[3] = 2 h room temperature, values separated by / are repeat determinations
[4] = 8 nM CGS, values separated by / are repeat determinations, read-out: cAMP (nM) 0.1% BSA, 8 nM CGS
[5] = 1 uM CGS, values separated by / are repeat determinations, read-out: cAMP (nM) 0.1% BSA, 1 uM CGS
[6] = 1 uM CGS, read-out: cAMP (nM) 0.1% BSA, 1 uM CGS
[7] = 8 nM CGS, read-out: cAMP (nM) 0.1% BSA, 8 nM CGS

| SMILES | IC50 (Adenosine A2A receptor [1]; [3]) | IC50 (Adenosine A2A receptor [2]; [4]) | IC50 (Adenosine A2A receptor [2]; [5]) [nM] | IC50 (Adenosine A2A receptor [1]; HTRF) | IC50 (Adenosine A2A receptor [2]; [6]) [nM] | IC50 (Adenosine A2A receptor [2]; [7]) |
| --- | --- | --- | --- | --- | --- | --- |
| Cc1cc(-c2c(OCc3nccn3CC3CC3)nc(N)nc2-c2ccc(F)cc2)cc(C(F)F)n1 [Example 177, 4-((1-(cyclopropylmethyl)-1H-imidazol-2-yl)methoxy)-5-(2-(difluoromethyl)-6-methylpyridin-4-yl)-6-(4-fluorophenyl)pyrimidin-2-amine] | 0.2 nM | 2.6 nM and 2.9 nM | 271 | – | – | – |
| Cc1cc(-c2c(OC[C@@H](C)O)nc(N)nc2-c2ccc(F)cc2)cc(C(F)F)n1 [Example 74, (R)-1-((2-amino-5-(2-(difluoromethyl)-6-methylpyridin-4-yl)-6-(4-fluorophenyl)pyrimidin-4-yl)oxy)propan-2-ol] | 8.4 nM and 15.7 nM | – | 693 | – | – | – |
| CCn1cnc(COc2nc(N)nc(-c3ccc(F)cc3)c2-c2cc(C)nc(C(F)F)c2)n1 [Example 221, 5-(2-(difluoromethyl)-6-methyipyridin-4-yl)-4-((1-ethyl-1H-1,2,4-triazol-3-yl)methoxy)-6-(4-fluorophenyl)pyrimidin-2-amine] | – | – | – | 24 nM | 444 | – |
| COC(=O)NCCOc1nc(N)nc(-c2ccc(F)cc2)c1-c1cc(C)nc(C(F)F)c1 [Example 116, methyl(2-((2-amino-5-(2-(difluoromethyl)-6-methylpyridin-4-yl)-6-(4-fluorophenyl)pyrimidin-4-yl)oxy)ethyl)carbamate] | 7.3 nM | 4.7 nM and 3.2 nM | – | – | – | – |
| CCN(C(=O)COc1nc(N)nc(-c2ccc(F)cc2)c1-c1cc(C)nc(C(F)F)c1)c1ccccn1 [Example 117, 2-((2-amino-5-(2-(difluoromethyl)-6-methylpyridin-4-yl)-6-(4-fluorophenyl)pyrimidin-4-yl)oxy)-N-ethyl-N-(pyridin-2-yl)acetamide] | 39.4 nM | 27 nM | – | – | – | – |
| Cc1cc(-c2c(OCc3nccn3CC(C)(C)O)nc(N)nc2-c2ccc(F)cc2)cc(C(F)F)n1 [Example 175, 1-(2-(((2-amino-5-(2-(difluoromethyl)-6-methylpyridin-4-yl)-6-(4-fluorophenyl)pyrimidin-4-yl)oxy)methyl)-1H-imidazol-1-yl)-2-methylpropan-2-ol] | 15 nM | 19 nM | – | – | – | – |
| Cc1cc(-c2c(OCC(=O)N(C)C)nc(N)nc2-c2ccccc2)cc(C(F)(F)F)n1 [Example 2, 2-((2-amino-5-(2-methyl-6-(trifluoromethyl)pyridin-4-yl)-6-phenylpyrimidin-4-yl)oxy)-N,N-dimethylacetamide] | 30.5 nM | 6.8 nM and 3.4 nM | – | – | – | – |
| CCc1nnn(CC)c1COc1nc(N)nc(-c2ccc(F)cc2)c1-c1cc(C)nc(C(F)F)c1 [Example 202, 4-((1,4-diethyl-1H-1,2,3-triazol-5-yl)methoxy)-5-(2-(difluoromethyl)-6-methylpyridin-4-yl)-6-(4-fluorophenyl)pyrimidin-2-amine] | – | – | – | 3.5 nM | – | 16 nM |
| CCOC(=O)NCc1nc(N)nc(-c2ccccc2)c1-c1cc(C)nc(C(F)(F)F)c1 [Example 63, Ethyl((2-amino-5-(2-methyl-6-(trifluoromethyl)pyridin-4-yl)-6-phenylpyrimidin-4-yl)methyl)carbamate] | 37 nM | 8.3 nM | – | – | – | – |
| CCN(CCOc1nc(N)nc(-c2ccc(F)cc2)c1-c1cc(C)nc(C(F)F)c1)c1ncccn1 [Example 146, 5-(2-(difluoromethyl)-6-methylpyridin-4-yl)-4-(2-(ethyl(pyrimidin-2-yl)amino)ethoxy)-6-(4-fluorophenyl)pyrimidin-2-amine] | 4 nM | 5.6 nM | – | – | – | – |
| Cc1cc(-c2c(OCc3n[nH]cc3C(C)C)nc(N)nc2-c2ccc(F)cc2)cc(C(F)F)n1 [Example 183, 5-(2-(difluoromethyl)-6-methylpyridin-4-yl)-4-(4-fluorophenyl)-6-((4-isopropyl-1H-pyrazol-3-yl)methoxy)pyrimidin-2-amine] | 46 nM | 12 nM | – | – | – | – |
| CCNC(=O)COc1nc(N)nc(-c2ccccc2)c1-c1cc(C)nc(C(F)(F)F)c1 [Example 29, 2-([2-amino-5-[2-methyl-6-(trifluoromethyl)pyridin-4-yl]-6-phenylpyrimidin-4-yl]oxy)-N-ethylacetamide] | 7.74 nM | 2 nM and 2.7 nM | – | – | – | – |
| Cc1cc(-c2c(OCCOc3cccc(N(C)CCO)n3)nc(N)nc2-c2ccc(F)cc2)cc(C(F)F)n1 [Example 213, 2-((6-(2-((2-amino-5-(2-(difluoromethyl)-6-methylpyridin-4-yl)-6-(4-fluorophenyl)pyrimidin-4-yl)oxy)ethoxy)pyridin-2-yl)(methyl)amino)ethan-1-ol] | – | – | – | 9.3 nM | 7.16 | 3.4 nM |
| Cc1cc(-c2c(OCC(O)CN(C)c3ccccn3)nc(N)nc2-c2ccc(F)cc2)cc(C(F)F)n1 (stereo not shown) [Example 201, 1-((2-amino-5-(2-(difluoromethyl)-6-methylpyridin-4-yl)-6-(4-fluorophenyl)pyrimidin-4-yl)oxy)-3-(methyl(pyridin-2-yl)amino)propan-2-ol] | – | – | – | 1 nM and 6.5 nM | – | 4.2 nM and 3.5 nM |
| Cc1cc(-c2c(OCCN(C)c3cnccn3)nc(N)nc2-c2ccc(F)cc2)cc(C(F)F)n1 [Example 152, 5-(2-(difluoromethyl)-6-methylpyridin-4-yl)-4-(4-fluorophenyl)-6-(2-(methyl(pyrazin-2-yl)amino)ethoxy)pyrimidin-2-amine] | 5.1 nM | – | 351 | – | – | – |
| Cc1cc(-c2c(OCCNc3ccccn3)nc(N)nc2-c2ccc(F)cc2)cc(C(F)F)n1 [Example 94, 5-(2-(difluoromethyl)-6-methylpyridin-4-yl)-4-(4-fluorophenyl)-6-(2-(pyridin-2-ylamino)ethoxy)pyrimidin-2-amine] | 2.4 nM | 0.39 nM and 2.9 nM | – | – | – | – |
| Cc1cc(-c2c(OCCN(C)c3cc(OCCO)ccn3)nc(N)nc2-c2ccc(F)cc2)cc(C(F)F)n1 [Example 155, 2-((2-((2-((2-amino-5-(2-(difluoromethyl)-6-methylpyridin-4-yl)-6-(4-fluorophenyl)pyrimidin-4-yl)oxy)ethyl)(methyl)amino)pyridin-4-yl)oxy)ethan-1-ol] | 24 nM | 5.4 nM | – | – | – | – |
| Cc1cc(-c2c(OCc3cn(C(C)C)nn3)nc(N)nc2-c2ccc(F)cc2)cc(C(F)F)n1 [Example 208, 5-(2-(difluoromethyl)-6-methylpyridin-4-yl)-4-(4-fluorophenyl)-6-((1-isopropyl-1H-1,2,3-triazol-4-yl)methoxy)pyrimidin-2-amine] | – | – | – | 3.4 nM | 394 | 1.4 nM and 1 nM |
| CCN(CC)C(=O)COc1nc(N)nc(-c2ccco2)c1-c1cc(C)nc(C(F)(F)F)c1 [Example 11, 2-((2-amino-6-(furan-2-yl)-5-(2-methyl-6-(trifluoromethyl)pyridin-4-yl)pyrimidin-4-yl)oxy)-N,N-diethylacetamide] | 7.21 nM | 3.2 nM | – | – | – | – |
| Cc1cc(-c2c(OC[C@H](O)CO)nc(N)nc2-c2ccc(F)cc2)cc(C(F)F)n1 [Example 86, (R)-3-((2-amino-5-(2-(difluoromethyl)-6-methylpyridin-4-yl)-6-(4-fluorophenyl)pyrimidin-4-yl)oxy)propane-1,2-diol] | 13 nM | 2 nM and 9.1 nM and 10.5 nM | 1070 | – | – | – |
| CCNCCOc1nc(N)nc(-c2ccc(F)cc2)c1-c1cc(C)nc(C(F)F)c1 [Example 65, 5-(2-(difluoromethyl)-6-methylpyridin-4-yl)-4-(2-(ethylamino)ethoxy)-6-(4-fluorophenyl)pyrimidin-2-amine] | 42 nM | 1.6 nM | 1010 | – | – | – |
| Cc1cc(-c2c(OCCN3CCN(c4ccc(S(C)(=O)=O)cc4)CC3)nc(N)nc2-c2ccc(F)cc2)cc(C(F)F)n1 [Example 56, 5-(2-(difluoromethyl)-6-methylpyridin-4-yl)-4-(4-fluorophenyl)-6-(2-(4-(4-(methylsulfonyl)phenyl)piperazin-1-yl)ethoxy)pyrimidin-2-amine] | 8.9 nM | 3.6 nM | – | – | – | – |
| Cc1cc(-c2c(OCCN(C)c3ccc(C#N)cn3)nc(N)nc2-c2ccc(F)cc2)cc(C(F)F)n1 [Example 156, 6-((2-((2-amino-5-(2-(difluoromethyl)-6-methylpyridin-4-yl)-6-(4-fluorophenyl)pyrimidin-4-yl)oxy)ethyl)(methyl)amino)nicotinonitrile] | 84 nM | 57 nM | – | – | – | – |
| Cc1cc(-c2c(OCc3nccn3C3CCC3)nc(N)nc2-c2ccc(F)cc2)cc(C(F)F)n1 [Example 194, 4-((1-cyclobutyl-1H-imidazol-2-yl)methoxy)-5-(2-(difluoromethyl)-6-methylpyridin-4-yl)-6-(4-fluorophenyl)pyrimidin-2-amine] | 0.6 nM and 1.7 nM | 1.5 nM | 151 | – | – | – |
| COC(=O)N1CCC(COc2nc(N)nc(-c3ccc(F)cc3)c2-c2cc(C)nc(C(F)F)c2)CC1 [Example 106, methyl 4-(((2-amino-5-(2-(difluoromethyl)-6-methylpyridin-4-yl)-6-(4-fluorophenyl)pyrimidin-4-yl)oxy)methyl)piperidine-1-carboxylate] | 38 nM | 43 nM | – | – | – | – |
| CCNC(=O)Nc1ccc(CCOc2nc(N)nc(-c3ccc(F)cc3)c2-c2cc(C)nc(C(F)F)c2)cc1 [Example 67, 1-(4-(2-((2-amino-5-(2-(difluoromethyl)-6-methylpyridin-4-yl)-6-(4-fluorophenyl)pyrimidin-4-yl)oxy)ethyl)phenyl)-3-ethylurea] | 27 nM | 4.7 nM | – | – | – | – |
